System: monocotyledonous and dicotyledonous test plants
Test: Post-emergence herbicidal action
Assay type: in vivo
Parameters: key: 10=total damage; 0=no action; Ratings of from 10 to 7 (especially from 10 to 8) indicate good to very good herbicidal action
Conditions: 250 g a.i./ha, about 18 days, rating 0-10
Experimental: Post-Emergence Herbicidal Action
In a greenhouse, monocotyledonous and dicotyledonous test plants are grown in standard soil in plastic pots and at the 4- to 6-leaf stage are sprayed with an aqueous suspension of the test compounds of formula I prepared from a 25% wettable powder (Example F3, b) according to WO 97/34485) or with an emulsion of the test compounds of formula I prepared from a 25% emulsifiable concentrate (Example F1, c) according to WO 97/34485), in a concentration corresponding to 125 g or 250 g of active ingredient/ha (500 litres of water/ha). The test plants are then grown on in a greenhouse under optimum conditions. After a test duration of about 18 days, the test is evaluated in accordance with a scale of nine ratings (10=total damage, 0=no action). Ratings of from 10 to 7 (especially from 10 to 8) indicate good to very good herbicidal action.

Row | SMILES | Post-emergence action, Amaranthus | Post-emergence action, Chenopodium | Post-emergence action, Echinochloa | Post-emergence action, Euphorbia | Post-emergence action, Ipomea | Post-emergence action, Sinapis | Post-emergence action, Stellaria | Post-emergence action, Xanthium
1 | COc1nn(Cc2nc(C(F)(F)F)ccc2C(=O)C2=C(O)CCCC2=O)c(=O)n1C1CC1 [Compound A1.031] | 9 | 10 | 7 | 8 | 9 | 8 | 9 | 9
2 | COc1nn(Cc2nc(C(F)(F)F)ccc2C(=O)C2=C(O)C(C)(C)C(=O)C(C)(C)C2=O)c(=O)s1 [Compound A8.095] | 9 | 5 | 9 | 0 | 9 | 8 | 7 | 8
3 | COc1nn(Cc2nc(C(F)(F)F)ccc2C(=O)c2cnn(C)c2O)c(=O)n1C1CC1 [Compound B1.039] | 6 | 8 | 9 | 9 | 8 | 9 | 9 | 8
4 | Cn1c(C(F)(F)F)nn(Cc2nc(C(F)(F)F)ccc2C(=O)C2=C(O)CCCC2=O)c1=O [Compound A1.007] | 9 | 10 | 8 | 4 | 9 | 8 | 7 | 9
5 | COc1nn(Cc2nc(C(F)(F)F)ccc2C(=O)C2=C(O)CCCC2=O)c(=O)n1C [Compound A1.019] | 9 | 9 | 8 | 9 | 9 | 8 | 8 | 9
6 | Cc1nn(Cc2nc(C(F)(F)F)ccc2C(=O)C2=C(O)C3CCC(C3)C2=O)c(=O)o1 (stereo not shown) [Compound A6.097] | 7 | 9 | 7 | 7 | 7 | 8 | 9 | 7
7 | CCOc1nn(Cc2nc(C(F)(F)F)ccc2C(=O)C2=C(O)CCCC2=O)c(=O)n1C1CC1 [Compound A1.049] | 9 | 8 | 8 | 9 | 9 | 8 | 8 | 9
8 | O=C1CCCC(O)=C1C(=O)c1ccc(C(F)(F)F)nc1Cn1sccc1=O [Compound A1.109] | 9 | 10 | 8 | 10 | 9 | 3 | 5 | 9
9 | Cc1nn(Cc2nc(C(F)(F)F)ccc2C(=O)C2=C(O)C(C)(C)CC(C)(C)C2=O)c(=O)o1 [Compound A7.008] | 5 | 9 | 7 | 7 | 7 | 9 | 9 | 8
10 | CCOc1nn(Cc2nc(C(F)(F)F)ccc2C(=O)c2cnn(C)c2O)c(=O)n1C [Compound B1.005] | 9 | 9 | 4 | 9 | 8 | 9 | 8 | 6
11 | CSC(=O)n1c(C)cc(=O)n1Cc1nc(C(F)(F)F)ccc1C(=O)c1cnn(C)c1O [Compound B1.062] | 9 | 9 | 4 | 9 | 7 | 8 | 8 | 6
12 | CCN1C(=O)N(Cc2nc(C(F)(F)F)ccc2C(=O)C2=C(O)C(C)(C)C(=O)C(C)(C)C2=O)C(=O)C1C (stereo not shown) [Compound A8.174] | 8 | 9 | 0 | 7 | 8 | 7 | 7 | 7
13 | COc1nn(Cc2nc(C(F)(F)F)ccc2C(=O)c2cnn(C)c2O)c(=O)n1C [Compound B1.004] | 8 | 9 | 8 | 9 | 8 | 10 | 8 | 9
14 | COc1nn(Cc2nc(C(F)(F)F)ccc2C(=O)C2=C(O)C3CCC(C3)C2=O)c(=O)s1 (stereo not shown) [Compound A6.091] | 8 | 9 | 9 | 8 | 8 | 8 | 9 | 9
15 | CN1CCN(Cc2nc(C(F)(F)F)ccc2C(=O)C2=C(O)CCCC2=O)C1=S [Compound A1.202] | 9 | 8 | 8 | 9 | 9 | 8 | 7 | 9
16 | CCOc1nn(Cc2nc(C(F)(F)F)ccc2C(=O)C2=C(O)CCCC2=O)c(=O)n1C [Compound A1.043] | 9 | 9 | 7 | 7 | 9 | 6 | 9 | 9
17 | Cn1ncc(C(=O)c2ccc(C(F)(F)F)nc2Cn2c(=O)oc3cc(Cl)ccc32)c1O [Compound B1.194] | 9 | 9 | 9 | 9 | 7 | 7 | 8 | 9

Source: patent publication US20050256003A1, “Novel herbicides” (priority 2002, published 2005)
